Values of other authors as cited in patent publication EP3842031A1, “NEW THERAPEUTIC INHALATION SYSTEM PROVIDING REDUCED DOSE OF FLUTICASONE PROPIONATE AND SALMETEROL XINAFOATE WITH IMPROVED EFFICACY AND SAFETY PROFILE” (PRZEDSIEBIORSTWO FARMACEUTYCZNE LEK-AM SP Z O. O., priority 2019, dated 2021).

Key:
[1] = in vivo
[2] = compared with beclomethasone dipropionate, control of chronic asthma

- oral bioavailability [1]: less than 1%
Compound: CCC(=O)O[C@]1(C(=O)SCF)[C@H](C)C[C@H]2[C@@H]3C[C@H](F)C4=CC(=O)C=C[C@]4(C)[C@@]3(F)[C@@H](O)C[C@@]21C [Fluticasone propionate]
- potency [2]: twice the potency of the beclomethasone dipropionate
